This passage reports TGI, GI50 and outcome results from PubChem BioAssay (NCI).

Test systems include MCF7 breast; NCI-H23 lung; HL-60(TB) leukemia; COLO 205 colon; 786-0 renal; K-562 leukemia; KM12 colon; T-47D breast; KM20L2 colon.
Test in all cases: DTP human tumour cell line panel, 48 h

Molecules are shown by their SMILES. Several values for one entry are separate records, joined by “and”; a condition that tells them apart may be missing. Identical values can stand only once.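 How tested: cells in 96-well plates exposed to compound for 48 hours at five concentrations. Here, GI50 denotes the concentration required for 50% inhibition of growth. At the TGI there is no net growth.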 Activity calls are given as the source filed them. No stated cut-off is given here; in the data, active means GI50 below about 0.43 µM; inactive means the rest.

A word on the TGI: it is the concentration at which net growth stops. As usually defined, the GI50 is the concentration giving 50% growth inhibition.

As to `Cn1c2ccccc2c(=O)c2c(O)cc3c(c21)CC(C1(C)CO1)O3` (configuration not stated), the total growth inhibition concentration (TGI) in the test on MCF7 breast was 1.89 µM; in the test with NCI-H23 lung, 4.14 µM; in the test on HL-60(TB) leukemia, 2.32 µM; in the test on COLO 205 colon, 19.7 µM; in the test on 786-0 renal, 5.06 µM; in the test with K-562 leukemia, 7.84 µM. Also, the total growth inhibition concentration (TGI) with KM12 colon was 6.52 µM; in the test with T-47D breast, 24.9 µM; in the test with KM20L2 colon it was 31.8 µM.

Regarding `COC(C(=O)C(O)C(C)O)C1Cc2cc3cc(OC4CC(OC5CC(O)C(O)C(C)O5)C(O)C(C)O4)c(C)c(O)c3c(O)c2C(=O)C1OC1CC(OC2CC(O)C(OC3CC(C)(O)C(O)C(C)O3)C(C)O2)C(O)C(C)O1` (configuration not stated), the GI50 was 0.00053 µg/mL with MCF7 breast; 0.0112 µg/mL and 0.000748 µg/mL in the test on NCI-H23 lung; 0.00227 µg/mL with HL-60(TB) leukemia; 0.0112 µg/mL and 0.000702 µg/mL in the test with COLO 205 colon; 0.0112 µg/mL and 0.0152 µg/mL with 786-0 renal; 0.0112 µg/mL and 0.00232 µg/mL in the test with K-562 leukemia. Besides, the GI50 in the test on KM12 colon is 0.0112 µg/mL and 0.000667 µg/mL; in the test on T-47D breast it was 0.0175 µg/mL. In addition, the concentration for total growth inhibition (TGI) in the test with MCF7 breast was 0.73 µg/mL; in the test with HL-60(TB) leukemia, 0.188 µg/mL; with 786-0 renal, 112 µg/mL and 64.7 µg/mL; in the test on KM12 colon, 0.0428 µg/mL and 0.0723 µg/mL; in the test with T-47D breast, 15.8 µg/mL. Further, the outcome in the test on KM20L2 colon was inactive.

On to `COc1ccc2c(c1)[n+]([O-])c(-c1ccc(Br)cc1)c(N)[n+]2[O-]`, for which the TGI with NCI-H23 lung was 55.3 µM; in the test with HL-60(TB) leukemia it was over 100 µM; in the test on COLO 205 colon, 32.9 µM; in the test on 786-0 renal, over 100 µM; in the test on K-562 leukemia, over 100 µM; in the test on KM12 colon it was over 100 µM. Moreover, the TGI with KM20L2 colon was over 100 µM.

On to `Cc1cc2nc3ccc(=[N+](C)C)cc-3sc2cc1N`, for which the GI50 in the test with MCF7 breast is 0.326 µM and 0.405 µM; in the test on NCI-H23 lung it was 0.388 µM and 0.381 µM; in the test on HL-60(TB) leukemia it was 0.214 µM and 0.181 µM; in the test on COLO 205 colon, 0.745 µM and 0.309 µM; with 786-0 renal, 1.82 µM and 0.76 µM; with K-562 leukemia it was 0.201 µM and 0.318 µM. The GI50 was 0.401 µM and 0.771 µM in the test with KM12 colon; 0.475 µM and 0.722 µM with T-47D breast. The TGI is 1.87 µM and 6.05 µM and 2.79 µM in the test with MCF7 breast; 2.78 µM and 9.3 µM and 2.51 µM in the test with NCI-H23 lung; 2.19 µM and 9.28 µM and 0.94 µM with COLO 205 colon; 10.1 µM and 17.7 µM and 4.3 µM in the test with 786-0 renal; 2.28 µM and 18.1 µM and 2.95 µM in the test with KM12 colon; 4.52 µM and 28.8 µM and 6.75 µM in the test with T-47D breast. Besides, the concentration for total growth inhibition (TGI) in the test on KM20L2 colon is 41.5 µM.

`C[C@]12CCC[C@H](O)[C@H]1C[C@H](CO)CC2`: the concentration for total growth inhibition (TGI) in the test with NCI-H23 lung, in the test with HL-60(TB) leukemia, in the test on COLO 205 colon, in the test on 786-0 renal, in the test with K-562 leukemia and in the test with KM12 colon was over 100 µM throughout. The compound further gave a TGI in the test with KM20L2 colon of over 100 µM.

For `C/C(=N\NC(=S)N1CCN(C2CCCCCC2)CC1)c1ccccn1`, the TGI is 2.05 µM with MCF7 breast; 5.77 µM with NCI-H23 lung; 1.48 µM in the test on COLO 205 colon; 3.58 µM and 1.95 µM with 786-0 renal; 1.67 µM and 0.97 µM with K-562 leukemia; 3.13 µM in the test with KM12 colon. For the same compound, the TGI in the test with T-47D breast is 2.22 µM; in the test with KM20L2 colon, 8.96 µM and 2.07 µM. Further, the GI50 was under 0.001 µM in the test on HL-60(TB) leukemia; 0.0121 µM with 786-0 renal; under 0.001 µM in the test with K-562 leukemia; 0.0229 µM with KM12 colon; 3.83 µM in the test on KM20L2 colon.

In the case of `N.N.O=P([O-])([O-])CN(CCN(CP(=O)([O-])[O-])CP(=O)([O-])[O-])CP(=O)([O-])[O-].[Pt+2]`, the GI50 in the test with NCI-H23 lung, in the test on HL-60(TB) leukemia, in the test with COLO 205 colon, in the test on 786-0 renal, with K-562 leukemia and in the test with KM12 colon was over 100 µM each time. Also, the GI50 in the test with KM20L2 colon was over 100 µM. Moreover, the TGI in the test with NCI-H23 lung, in the test with HL-60(TB) leukemia, with COLO 205 colon, in the test with 786-0 renal, in the test with K-562 leukemia and in the test with KM12 colon was over 100 µM in each case. The same compound registered a TGI in the test with KM20L2 colon of over 100 µM.

Regarding `CSc1nc2c(nc(N)n2C2OC(COC(C)=O)C(OC(C)=O)C(OC(C)=O)C2OC(C)=O)c(=O)n1C` (configuration not stated), the total growth inhibition concentration (TGI) with NCI-H23 lung, with HL-60(TB) leukemia, with COLO 205 colon, with 786-0 renal, with K-562 leukemia and in the test on KM12 colon was over 100 µM throughout. In the test with KM20L2 colon, this compound returned a TGI of over 100 µM.

`COC(=O)NC(=Nc1ccc(Oc2ccccc2)cc1NC=O)NC(=O)OC`: the concentration for total growth inhibition (TGI) in the test on NCI-H23 lung is over 100 µM; with HL-60(TB) leukemia it was 0.707 µM; in the test on COLO 205 colon, 0.618 µM; with 786-0 renal, over 100 µM; with K-562 leukemia, over 100 µM; with KM12 colon, over 100 µM. This compound also gave a TGI with KM20L2 colon of 0.49 µM.

Consider `C/C=C(/CCC1NCCC2c3ccccc3NC12)[Si](C)(C)C` (configuration not stated), for which the TGI with NCI-H23 lung was 28.8 µM; in the test on HL-60(TB) leukemia, 4.36 µM; in the test on COLO 205 colon, 3.15 µM; in the test on 786-0 renal it was 23.7 µM; with K-562 leukemia, 7.7 µM; with KM12 colon, 15.6 µM. The compound further registered a total growth inhibition concentration (TGI) in the test on KM20L2 colon of 16.2 µM.

As for `COC(=O)C1=Cc2cc(OC)c(OC)cc2[C@H](c2ccc(OC)c(OC)c2)C1C(=O)OC` (some centres not stated), the TGI with NCI-H23 lung, in the test with HL-60(TB) leukemia, in the test on COLO 205 colon, with 786-0 renal, in the test on K-562 leukemia and with KM12 colon was over 100 µM each time. In the test with KM20L2 colon, this compound showed a TGI of over 100 µM.

For `O=C(/C=C/c1ccccc1Cl)c1cccc2ccccc12`, the concentration for total growth inhibition (TGI) is 28.1 µM in the test with NCI-H23 lung; 37.7 µM with HL-60(TB) leukemia; 33.3 µM with COLO 205 colon; 17.9 µM with 786-0 renal; over 100 µM in the test with K-562 leukemia; 16.8 µM in the test with KM12 colon. In the test with KM20L2 colon, this compound gave a TGI of 19.6 µM.

Consider `COC(=O)N/N=C(\C(=O)Nc1cccc([N+](=O)[O-])c1)c1nc2ccc([N+](=O)[O-])cc2[nH]c1=O`, for which the concentration for total growth inhibition (TGI) in the test on NCI-H23 lung, in the test on HL-60(TB) leukemia, with COLO 205 colon, in the test with 786-0 renal, with K-562 leukemia and in the test on KM12 colon was over 100 µM each time. For the same compound, the TGI in the test on KM20L2 colon was determined as 67.3 µM.

As to `C=C1COC(O)(C2OCOC(C3CC(=O)NC(=O)C3)C2O)C1C` (configuration not stated), the concentration for 50% growth inhibition (GI50) with NCI-H23 lung was 0.00267 µM; in the test on HL-60(TB) leukemia it was 0.00217 µM; in the test with COLO 205 colon it was 0.00292 µM; in the test with 786-0 renal, 0.00362 µM; in the test on K-562 leukemia, 0.00241 µM; in the test on KM12 colon it was 0.00176 µM. In the test on T-47D breast, the 50% growth inhibitory concentration (GI50) is 0.00457 µM. Moreover, the concentration for total growth inhibition (TGI) was 0.0144 µM and 0.0338 µM in the test with NCI-H23 lung; 0.0123 µM with HL-60(TB) leukemia; 0.0128 µM with COLO 205 colon; 0.0532 µM in the test with 786-0 renal; 0.0411 µM in the test with K-562 leukemia; 0.0212 µM in the test with KM12 colon. The concentration for total growth inhibition (TGI) in the test with KM20L2 colon was 0.0281 µM and 0.0721 µM.

Regarding `NC(=O)c1ncn(CCN2CCN(C(=O)NCCCCCCNC(=O)N3CCN(CCn4cnc(C(N)=O)c4N)CC3)CC2)c1N`, the TGI with NCI-H23 lung, with HL-60(TB) leukemia, in the test with COLO 205 colon, in the test with 786-0 renal, with K-562 leukemia and with KM12 colon was over 100 µM throughout. In addition, the total growth inhibition concentration (TGI) in the test with KM20L2 colon is over 100 µM.
